The text below walks through data of patent US10123993B2, “Cyclic ureas as inhibitors of rock” (BRISTOL-MYERS SQUIBB COMPANY, priority 2015, dated 2018).

Structures are written as SMILES. Counter-ions that a name gives are not always drawn. Where only a bound is given, the exact number is not on record here.

Chain of ROCK2 (O75116 whole entry, species assumed): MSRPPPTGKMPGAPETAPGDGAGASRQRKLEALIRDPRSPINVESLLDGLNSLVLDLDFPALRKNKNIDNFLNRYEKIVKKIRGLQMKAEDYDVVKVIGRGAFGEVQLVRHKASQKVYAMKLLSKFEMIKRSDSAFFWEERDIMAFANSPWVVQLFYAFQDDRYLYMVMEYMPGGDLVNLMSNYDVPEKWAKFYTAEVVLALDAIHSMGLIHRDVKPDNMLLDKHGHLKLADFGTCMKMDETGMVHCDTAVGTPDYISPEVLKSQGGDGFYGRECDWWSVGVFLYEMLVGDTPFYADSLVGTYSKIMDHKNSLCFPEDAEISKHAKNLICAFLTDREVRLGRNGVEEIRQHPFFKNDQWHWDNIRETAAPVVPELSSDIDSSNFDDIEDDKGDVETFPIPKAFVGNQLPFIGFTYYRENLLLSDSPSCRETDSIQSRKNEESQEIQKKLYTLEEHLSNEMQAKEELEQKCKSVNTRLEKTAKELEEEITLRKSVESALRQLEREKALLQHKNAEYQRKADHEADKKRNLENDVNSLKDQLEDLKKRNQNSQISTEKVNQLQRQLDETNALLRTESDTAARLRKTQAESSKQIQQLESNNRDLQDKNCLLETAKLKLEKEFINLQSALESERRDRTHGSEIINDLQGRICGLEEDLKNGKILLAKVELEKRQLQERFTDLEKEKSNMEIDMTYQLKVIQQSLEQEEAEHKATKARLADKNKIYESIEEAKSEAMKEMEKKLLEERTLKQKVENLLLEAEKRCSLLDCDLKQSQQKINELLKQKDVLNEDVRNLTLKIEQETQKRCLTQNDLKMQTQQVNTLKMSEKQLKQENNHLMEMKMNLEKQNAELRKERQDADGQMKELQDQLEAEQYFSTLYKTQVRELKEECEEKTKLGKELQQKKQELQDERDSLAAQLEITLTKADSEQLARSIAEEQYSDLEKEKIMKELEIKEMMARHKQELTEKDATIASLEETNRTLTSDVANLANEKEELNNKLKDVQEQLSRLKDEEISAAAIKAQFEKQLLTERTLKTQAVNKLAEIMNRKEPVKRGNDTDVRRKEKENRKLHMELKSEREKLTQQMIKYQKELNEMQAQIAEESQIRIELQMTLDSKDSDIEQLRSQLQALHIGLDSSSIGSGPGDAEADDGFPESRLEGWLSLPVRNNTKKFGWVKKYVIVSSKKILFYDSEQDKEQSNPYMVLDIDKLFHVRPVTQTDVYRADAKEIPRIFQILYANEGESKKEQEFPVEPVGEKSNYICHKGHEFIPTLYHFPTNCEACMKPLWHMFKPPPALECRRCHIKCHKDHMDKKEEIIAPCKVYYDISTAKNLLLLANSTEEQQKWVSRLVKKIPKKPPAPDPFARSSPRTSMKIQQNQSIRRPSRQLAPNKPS

The target of this assay is ROCK2 (Homo sapiens, UniProt O75116). Description: ROCK2 kinase inhibition assay (Caliper LABCHIP, FITC peptide substrate). To be noted: 5 μM ATP, 1.5 μM peptide substrate; value ranges. It is filed as biochemical. The gist of the method:
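Dose-response curves gave IC50 from inhibition of peptide phosphorylation, measured by LabChip separation after EDTA stop. Reactions used 1.5 μM FITC-labelled peptide, 5 μM ATP, 20 mM HEPES pH 7.5 with MgCl2, Brij-35, DTT, and under 2% DMSO.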
The IC50 is the concentration needed to halve the response being measured. A higher IC50 goes with a need for much substance. Molecule `COc1ccc(F)c(Cn2ccn(-c3ccc(-c4cn[nH]c4)c(OC)n3)c2=O)c1` [Example 373, 1-(2-fluoro-5-methoxybenzyl)-3-(6-methoxy-5-(1H-pyrazol-4-yl)pyridin-2-yl)-1H-imidazol-2(3H)-one] returned an IC50 below 2 nM.

`CNCC(c1cccc(OC)c1)N1CCN(c2ccc(-c3cn[nH]c3)cc2)C1=O` (single isomer, unassigned) [Example 310, 1-(4-(1H-Pyrazol-4-yl)phenyl)-3-(1-(3-methoxyphenyl)-2-(methylamino)ethyl)imidazolidin-2-one] displayed an IC50 of 2.1 to 20 nM.

`COc1cccc(CN2CCN(c3ccc(-c4c[nH]nc4C)c(OC)n3)C2=O)c1` [Example 320, 1-(6-methoxy-5-(5-methyl-1H-pyrazol-4-yl)pyridin-2-yl)-3-(3-methoxybenzyl)imidazolidin-2-one] gave an IC50 of 2.1 to 20 nM.

In the case of `COc1nc(-n2ccn(Cc3cccc(F)c3F)c2=O)ccc1-c1cn[nH]c1` [Example 375, 1-(2,3-difluorobenzyl)-3-(6-methoxy-5-(1H-pyrazol-4-yl)pyridin-2-yl)-1H-imidazol-2(3H)-one], the IC50 was 2.1 to 20 nM.

`COc1ccc(F)c(CN2CCN(c3ccc(-c4cn[nH]c4)cc3)C2=O)c1` [Example 120, 1-(4-(1H-pyrazol-4-yl)phenyl)-3-(2-fluoro-5-methoxybenzyl)imidazolidin-2-one] returned an IC50 of 20.1 to 200 nM.

For `N#Cc1cccc(CN2CCN(c3ccc(-c4cn[nH]c4)cn3)C2=O)c1` [Example 235, 3-((3-(5-(1H-pyrazol-4-yl)pyridin-2-yl)-2-oxoimidazolidin-1-yl)methyl)benzonitrile], the IC50 was in the range of 200 to 2000 nM.

Consider `COc1cccc(C(CO)N2CCN(c3ccc(-c4cn[nH]c4)c(C)n3)C2=O)c1` (single isomer, unassigned) [Example 160, 1-(2-hydroxy-1-(3-methoxy-phenyl)ethyl)-3-(6-methyl-5-(1H-pyrazol-4-yl)pyridin-2-yl)imidazolidin-2-one], for which the IC50 fell in the range of 20.1 to 200 nM.

`COc1cc(F)cc(CN2CCN(c3ccc(-c4cn[nH]c4)c(C4CC4)c3)C2=O)c1` [Example 469, 1-(3-cyclopropyl-4-(1H-pyrazol-4-yl)phenyl)-3-(3-fluoro-5-methoxybenzyl)imidazolidin-2-one]: the IC50 fell in the range of 20.1 to 200 nM.

Molecule `COc1cccc(CN2CC(CO)N(c3ccc(-c4cn[nH]c4)cc3)C2=O)c1` (single isomer, unassigned; (+)) [Example 48, (+)-3-(4-(1H-Pyrazol-4-yl)phenyl)-4-(hydroxymethyl)-1-(3-methoxybenzyl)imidazolidin-2-one] came in with an IC50 of 2.1 to 20 nM.

With `COc1nc(N2CCN(C(C)c3cccc(OCC4CC4)c3)C2=O)ccc1-c1cn[nH]c1` (single isomer, unassigned) [Example 212, 1-(1-(3-(cyclopropylmethoxy)phenyl)ethyl)-3-(6-methoxy-5-(1H-pyrazol-4-yl)pyridin-2-yl)imidazolidin-2-one], the IC50 lay in the range of 2.1 to 20 nM.

`COc1nc(N2CCN(Cc3cc(F)ccc3F)C2=O)ccc1-c1cn[nH]c1` [Example 246, 1-(2,5-difluorobenzyl)-3-(6-methoxy-5-(1H-pyrazol-4-yl)pyridin-2-yl)imidazolidin-2-one]: the concentration for half-maximal inhibition (IC50) is 2.1 to 20 nM.

Turning to `COc1cccc(C(CO)N2CCN(c3ccc(-c4cn[nH]c4)cc3)C2=O)c1` (single isomer, unassigned) [Example 155, 1-(4-(1H-Pyrazol-4-yl)phenyl)-3-(2-hydroxy-1-(3-methoxyphenyl)ethyl)imidazolidin-2-one], the IC50 is below 2 nM.

Consider `COc1cc(CN2C(=O)N(c3ccc(-c4cn[nH]c4)cc3)C[C@@H]2CO)ccc1F` (single isomer, unassigned) [Example 130], for which the IC50 lay within 2.1 to 20 nM.

With `COc1cc(F)cc(CN2CCN(c3ccc(-c4cn[nH]c4)nc3)C2=O)c1` [Example 437, 1-(6-(1H-pyrazol-4-yl)pyridin-3-yl)-3-(3-fluoro-5-methoxybenzyl)imidazolidin-2-one], the IC50 lay in the range of 20.1 to 200 nM.

On to `COc1cccc(CN2CCN(c3ccc(-c4cn[nH]c4)cc3)C2=O)c1F` [Example 116, 1-(4-(1H-Pyrazol-4-yl)phenyl)-3-(2-fluoro-3-methoxybenzyl)imidazolidin-2-one], for which the IC50 is 20.1 to 200 nM.

The molecule `CC(C)COc1cccc(CN2CCN(c3ccc(-c4cn[nH]c4)cn3)C2=O)c1` [Example 444, 1-(5-(1H-pyrazol-4-yl)pyridin-2-yl)-3-(3-isobutoxybenzyl)imidazolidin-2-one] displayed an IC50 of 20.1 to 200 nM.

`COc1cccc(C(C)N2C(=O)N(c3ccc(-c4cn[nH]c4)cc3)C[C@@H]2CO)c1` (single isomer, unassigned) [Example 132] yielded a 50% inhibitory concentration (IC50) of 2.1 to 20 nM.

The molecule `COc1nc(-n2ccn(Cc3cc(F)ccc3F)c2=O)ccc1-c1cn[nH]c1` [Example 415, 1-(2,5-difluorobenzyl)-3-(6-methoxy-5-(1H-pyrazol-4-yl)pyridin-2-yl)-1H-imidazol-2(3H)-one] gave an IC50 of 2.1 to 20 nM.

In the case of `COc1cc(CN2C(=O)N(c3ccc(-c4cn[nH]c4)cn3)C[C@H]2CO)ccc1F` [Example 311, (S)-1-(5-(1H-Pyrazol-4-yl)pyridin-2-yl)-3-(4-fluoro-3-methoxybenzyl)-4-(hydroxymethyl)imidazolidin-2-one], the IC50 fell in the range of 20.1 to 200 nM.

Molecule `O=C(O)c1cccc(CN2CCN(c3ccc(-c4cn[nH]c4)cn3)C2=O)c1` [Example 239, 3-((3-(5-(1H-pyrazol-4-yl)pyridin-2-yl)-2-oxoimidazolidin-1-yl)methyl)benzoic acid] gave an IC50 of 20.1 to 200 nM.

In the case of `COc1cc(N2C(=O)CN(Cc3ccccc3)C2=O)ccc1-c1cn[nH]c1` [Example 88, 1-benzyl-3-(3-methoxy-4-(1H-pyrazol-4-yl)phenyl)imidazolidine-2,4-dione], the IC50 was 200 to 2000 nM.

On to `COc1cc(N2CCN(Cc3ccccc3)C2=O)ccc1-c1cn[nH]c1` [Example 18, 1-Benzyl-3-(3-methoxy-4-(1H-pyrazol-4-yl)phenyl)imidazolidin-2-one], for which the IC50 lay in the range of 20.1 to 200 nM.

For `COc1cc(N2C(=O)CN(C(C)c3ccccc3)C2=O)ccc1-c1cn[nH]c1` (stereo not shown) [Example 96, 3-(3-methoxy-4-(1H-pyrazol-4-yl)phenyl)-1-(1-phenylethyl)imidazolidine-2,4-dione], the IC50 lay in the range of 200 to 2000 nM.

In the case of `COc1cc(N2CC(=O)N(Cc3ccccc3)C2=O)ccc1-c1cn[nH]c1` [Example 98, 3-Benzyl-1-(3-methoxy-4-(1H-pyrazol-4-yl)phenyl)imidazolidine-2,4-dione], the IC50 fell in the range of 20.1 to 200 nM.

In the case of `COc1cc(N2C(=O)CN(Cc3ccccc3F)C2=O)ccc1-c1cn[nH]c1` [Example 91, 1-(2-fluorobenzyl)-3-(3-methoxy-4-(1H-pyrazol-4-yl)phenyl)imidazolidine-2,4-dione, TFA], the IC50 lay within 200 to 2000 nM.

As to `COc1ccc(CN2C(=O)N(c3ccc(-c4cn[nH]c4)cc3)CC2(C)C)cc1F` [Example 139, 1-(4-(1H-pyrazol-4-yl)phenyl)-3-(3-fluoro-4-methoxy-benzyl)-4,4-dimethyl-imidazolidin-2-one], the IC50 fell in the range of 200 to 2000 nM.

On to `O=C1N(Cc2ccccc2)CC(CO)N1c1ccc(-c2cn[nH]c2)cc1` (stereo not shown) [Example 30, 3-(4-(1H-Pyrazol-4-yl)phenyl)-1-benzyl-4-(hydroxymethyl)imidazolidin-2-one], for which the IC50 was in the range of 20.1 to 200 nM.

As for `COc1nc(N2CCN(Cc3cc(F)ccc3C)C2=O)ccc1-c1cn[nH]c1` [Example 250, 1-(5-fluoro-2-methylbenzyl)-3-(6-methoxy-5-(1H-pyrazol-4-yl)pyridin-2-yl)imidazolidin-2-one], the IC50 fell in the range of 2.1 to 20 nM.

In turn, `COC(=O)CC(c1cccc(OC)c1)N1CCN(c2ccc(-c3cn[nH]c3)c(OC)c2)C1=O` (stereo not shown) [Example 20, Methyl 3-(3-(3-methoxy-4-(1H-pyrazol-4-yl)phenyl)-2-oxoimidazolidin-1-yl)-3-(3-methoxyphenyl)propanoate] registered an IC50 of 200 to 2000 nM.

With `COc1cc(F)cc(CN2C(=O)N(c3ccc(-c4cn[nH]c4)cn3)C[C@@H]2CO)c1` [Example 313, (R)-1-(5-(1H-pyrazol-4-yl)pyridin-2-yl)-3-(3-fluoro-5-methoxybenzyl)-4-(hydroxymethyl)imidazolidin-2-one], the IC50 is 20.1 to 200 nM.

For the molecule `COc1cc(C(C)N2CCN(c3ccc(-c4cn[nH]c4)c(OC)n3)C2=O)ccc1F` (single isomer, unassigned) [Example 230, 1-(1-(4-fluoro-3-methoxyphenyl)ethyl)-3-(6-methoxy-5-(1H-pyrazol-4-yl)pyridin-2-yl)imidazolidin-2-one], the IC50 is below 2 nM.

Molecule `COc1nc(N2CCN(Cc3cc(F)cc(F)c3)C2=O)ccc1-c1cn[nH]c1` [Example 247, 1-(3,5-difluorobenzyl)-3-(6-methoxy-5-(1H-pyrazol-4-yl)pyridin-2-yl)imidazolidin-2-one] came in with an IC50 below 2 nM.

Take `CCOc1cccc(C(C)n2ccn(-c3ccc(-c4cn[nH]c4)cn3)c2=O)c1` (single isomer, unassigned) [Example 370, 1-(5-(1H-pyrazol-4-yl)pyridin-2-yl)-3-(1-(3-ethoxyphenyl)ethyl)-1H-imidazol-2(3H)-one]: the IC50 lay in the range of 2.1 to 20 nM.

Take `COc1cccc([C@@H](C)N2CCN(c3ccc(-c4cn[nH]c4)cc3OC)C2=O)c1` [Example 14, (R)-1-(2-Methoxy-4-(1H-pyrazol-4-yl)phenyl)-3-(1-(3-methoxyphenyl)ethyl)imidazolidin-2-one]: the IC50 lay within 20.1 to 200 nM.

For the molecule `COc1ccc(F)c(CN2CCN(c3ccc(-c4cn[nH]c4)c(OC)n3)C2=O)c1` [Example 221, 1-(2-fluoro-5-methoxybenzyl)-3-(6-methoxy-5-(1H-pyrazol-4-yl)pyridin-2-yl)imidazolidin-2-one], the IC50 was below 2 nM.

As to `O=C1N(Cc2cccc(F)c2)CCN1c1ccc(-c2ccncc2F)cc1` [Example 49, 1-(3-fluorobenzyl)-3-(4-(3-fluoropyridin-4-yl)phenyl)imidazolidin-2-one], the IC50 was 20.1 to 200 nM.

The molecule `COc1cc(Cn2ccn(-c3ccc(-c4cn[nH]c4)cn3)c2=O)ccc1F` [Example 346, 1-(5-(1H-pyrazol-4-yl)pyridin-2-yl)-3-(4-fluoro-3-methoxybenzyl)-1H-imidazol-2(3H)-one] returned an IC50 of 20.1 to 200 nM.
